Data published in patent publication US4698422A, “Triphos and tetraphos gold compounds and ligands” (SmithKline Beckman Corporation, priority 1986, dated 1987).
Values joined by “and” are separate entries in the source; they are usually repeats but may differ in a detail not shown here. Equal values may be shown once.

Assays:
[1] = maximally tolerated dose in mice, ip, P388 regimen (Table A); format: in vivo, mouse; details: mouse, in vivo, ip; maximally tolerated dose for B6D2F female mice, ipqDxs regimen (Days 1 through 5)
Procedure: (§1) 10^6 P388 leukemia cells are inoculated ip in B6D2F1 mice. Twenty-four hours later, if the tumor inoculum proves to be free of bacterial contamination (as determined by 24 hours incubation in thioglycollate broth), animals are randomized into groups of 6 and housed in shoebox cages. The compound to be evaluated is dissolved in a minimal volume of either N,N-dimethylacetamide (DMA) or 95% ethanol (depending upon solubility). An equal volume of saline is added; if the drug comes out of solution an equal volume of polyethoxylated castor oil is added and then saline qs to a concentration such that the desired dose is delivered in 0.5 ml. The final concentration of DMA, ethanol and polyethoxylated castor oil is […]. Dilutions for lower doses are made with saline so there is a decreasing proportion of organic solvents in the vehicle with decreasing dosage. These vehicles provide soluble formulations (or suspensions). Fomulations are prepared immediately prior to injection. The compound is administered ip on Days 1 through 5 (i.e. treatment is initiated 24 hrs after tumor inoculation). Each experiment includes three groups of 6 animals as untreated controls and animals treated with a positive control, cisplatin, at two dose levels. Animals are weighed as a group on Days 1, 5 and 9 and average weight change (Δwt.) is used as a reflection of toxicity. Each experiment also includes an inoculum titration--groups of 8 mice inoculated ip with 10^5 to […] P388 leukemia cells. The titration is used to calculate cell kill achieved by treatment with drugs. Animals are monitored daily for mortality and experiments are terminated after 45 days. The endpoint is median survival time (MST) and increase in lifespan (ILS) which is the percentage of increase in MST relative to untreated controls. Untreated controls inoculated ip with 10^6 P388 leukemia cells generally survive for a median of 9 to 11 days. A drug is considered active if it produces ≥25 percent ILS.
(§2) ^(a) maximally tolerated dose for B6D2F female mice on an ipqDxs

P388 leukemia = test: in vivo ip P388 lymphocytic leukemia model; parameters: species or system B6D2F1 mice; details: maximum increase in lifespan, mice bearing ip P388 leukemia; slashes = separate experiments; ip Days 1 through 5; active if ≥25 percent
Procedure: This tumor system is widely accepted as an antitumor agent screening tool because it is sensitive to virtually all of the clinically active antineoplastic agents; quantitative and reproducible; amenable for large-scale screening; and predictive for activity in other animal tumor models.
as §1, with “These vehicles provide soluble formulations (or suspensions).” left out, “controls.” for “controls. Untreated controls inoculated ip with 10^6 P388 leukemia cells generally survive for a median of 9 to 11 days. A drug is considered active if it produces ≥25 percent ILS.”

B6D2F female mice [2] = test: maximally tolerated dose in mice, ip, P388 regimen (Table A); format: in vivo, mouse; details: maximally tolerated dose for B6D2F female mice, ipqDxs regimen (Days 1 through 5)
Procedure: as §1, §2

B6D2F female mice [3] = test: maximally tolerated dose in mice, ip qD × 10, M5076 (Table B); format: in vivo, mouse; details: maximally tolerated dose for B6D2F female mice
Procedure: (§3) Another chemosensitive tumor model is intraperitoneally (ip) implanted M5076 reticulum cell sarcoma in mice. In this system B6D2F female mice are inoculated with 0.5 ml of a 10 percent (w:v) brei of M5076 prepared from pooled subcutaneous (sc) tumors excised at about 21 days from C57B1/6 donors. Drugs are administered ip. Daily treatment is begun 24 hours after implantation and is continued for ten days. The treatment regimen for M5076 is more prolonged than for P388 because of the slower growth rate and longer control survival time of the M5076 tumor. A drug is considered active in this tumor model if it produces ≥25% ILS.
^(b) maximally tolerated dose for B6D2F female mice on an ip qD

B6D2F1 mice = test: maximally tolerated dose in mice, ip qD × 10, B16 (Table C); format: in vivo, mouse; details: maximally tolerated dose for B6D2F1 mice
Procedure: (§4) In this system, groups of eight B6D2F1 mice are inoculated ip with 0.5 ml of a 10% (w:v) brei of B15 melanoma prepared from pooled sc tumors excised at 14-21 days from […] donor mice. Daily treatment is begun 24 hours after tumor implantation and is continued daily for ten (10) days. The route of drug administration is ip. The mice are monitored daily for survival for sixty (60) days. Antitumor activity is assessed by prolongation of median survival time. An ILS of ≥25% indicates activity in this tumor model.
^(b) maximally tolerated dose for B6D2F1 mice on an ip qD .times

B16 melanoma = test: in vivo ip B16 melanoma assay; parameters: species or system B6D2F1 mice; details: maximum increase in lifespan, mice bearing ip B16 melanoma; slash = separate experiments; ip daily for ten days; active if ≥25%
Procedure: as §4

[4] = test system: M5076 reticulum cell sarcoma; test: intraperitoneally implanted M5076 reticulum cell sarcoma in mice; format: in vivo, B6D2F female mice; details: maximum increase in lifespan, mice bearing ip M5076; ip daily for ten days; active if ≥25% ILS
Procedure: as §3

## c1ccc(P(CCP(c2ccccc2)c2ccccc2)CCP(c2ccccc2)c2ccccc2)cc1 [Compound 6, bis(2-diphenylphosphinoethyl)phenylphosphine]
[1]
  MTD: 32 mg/kg
P388 leukemia
  ILS (max): 80% and 50%

## c1ccc(P(CCP(CCP(c2ccccc2)c2ccccc2)CCP(c2ccccc2)c2ccccc2)c2ccccc2)cc1 [Compound 7, tris(diphenylphosphinoethyl)phosphine]
[1]
  MTD: 64 mg/kg
P388 leukemia
  ILS (max): 35% and 30%

## c1ccc(P(CCP(CCP(c2ccccc2)c2ccccc2)c2ccccc2)CCP(c2ccccc2)c2ccccc2)cc1 (stereo not drawn) [Compound 8, 1,1,4,7,10,10-hexaphenyl-1,4,7,10-tetraphosphodecane]
[1]
  MTD: 64 mg/kg
P388 leukemia
  ILS (max): 25% and 40%

## CC(CP(c1ccccc1)c1ccccc1)(CP(c1ccccc1)c1ccccc1)CP(c1ccccc1)c1ccccc1 [Compound 9, μ-[1,1,1-Tris(diphenylphosphinomethyl)ethane]]
[1]
  MTD: 128 mg/kg
P388 leukemia
  ILS (max): 45% and 25%

## μ-[1,1,1-Tris(diphenylphosphinomethyl)ethane]tris(chlorogold) [Compound 5]
B6D2F female mice [2]
  MTD: 20 mg/kg
P388 leukemia
  ILS (max): 40% and 30%

## μ-[1,1,4,7,10,10-Hexaphenyl-1,4,7,10-tetraphosphodecane]tetrakis(1-thio- β-D-glucopyranosato-S)gold [Compound 4]
B6D2F female mice [2]
  MTD: 8 mg/kg
P388 leukemia
  ILS (max): 100% and 55%

## μ-[1,1,4,7,10,10-Hexaphenyl-1,4,7,10-tetraphosphodecane]tetrakis(chlorogold) [Compound 3]
B6D2F female mice [2]
  MTD: 12 mg/kg
B6D2F female mice [3]
  MTD: 8 mg/kg
B6D2F1 mice
  MTD: 6 mg/kg
B16 melanoma
  ILS: 30% and 51%
[4]
  ILS (MAX): 96%

## μ-[Bis(2-diphenylphosphinoethyl)phenylphosphine]tris(chlorogold) [Compound 1]
B6D2F female mice [2]
  MTD: 8 mg/kg
P388 leukemia
  ILS (max): 30% and 40%

## μ-[Tris(2-diphenylphosphinoethyl)phosphine]tetrakis(chlorogold) [Compound 2]
B6D2F female mice [2]
  MTD: 8 mg/kg
P388 leukemia
  ILS (max): 45%
